{"source": "patent US20230181614A1", "about": "“ADMINISTRATION OF CITICOLINE TO IMPROVE COGNITIVE PERFORMANCE, ATTENTIONAL PERFORMANCE, AND MOTOR FUNCTION” (KYOWA HAKKO BIO CO., LTD., priority 2014, published 2023)", "assay_type_in_all_cases": "in vivo, human", "key": {"[1]": {"test_system": "Healthy subjects, ages 13-18", "assay": "Barratt Impulsiveness Scale (BIS)", "set-up": "BIS Attention, Mean / BIS Motor, Mean / BIS Total, Mean: scale not given here", "source_text": "Study participants were screened by telephone prior to study enrollment. Healthy subjects, ages 13-18, with no significant medical conditions and no history of co-morbid psychiatric disorder, current Axis I or II diagnosis, or previous participation in a pharmacotherapeutic trial, were selected. Use of any psychotropic medication or any previous head injury resulting in loss of consciousness for 5 or more minutes were used as exclusion criteria. While no participant met criteria for a neuropsychiatric disorder at enrollment, clinical assessments were still completed throughout the study to evaluate changes in mood state. In addition, self-reports of sleep habits, lifestyle, and exercise routines were also administered at baseline as well as at each study visit to assess changes in health habits during study participation. Following the completion of Visit 1 assessment, participants were given their 28-day supply of citicoline (250 mg or 500 mg) or placebo, which was randomly assigned. They were instructed to take one capsule a day every day for the next 28 days. Visit 2 occurred fourteen days after Visit 1. At Visit 2, the remaining study pills were counted and participant dosage calendars were checked to ensure compliance with the protocol. Additional neuropsychological measures and clinical assessments were administered during this visit. Participants returned for Visit 3 fourteen days later, on the 28th day of their study participation. The pill bottle and the dosage calendar were collected from each participant. Urine and blood were again obtained. Participants also participated in similar clinical and neuropsychological testing and clinical measures that were given during visit 1. The BIS is a questionnaire is a scale used to measure impulsiveness. It includes three subscales: attentional, motor, and non-planning impulsiveness. A total score, or a sum of the three factors, was also calculated. The scale was administered at the first and third visits to assess presence or absence of symptoms of impulsiveness."}, "[2]": {"test_system": "Healthy subjects, ages 13-18", "assay": "ADHD Rating Scale (ARS)", "set-up": "scale not given here", "source_text": "Study participants were screened by telephone prior to study enrollment. Healthy subjects, ages 13-18, with no significant medical conditions and no history of co-morbid psychiatric disorder, current Axis I or II diagnosis, or previous participation in a pharmacotherapeutic trial, were selected. Use of any psychotropic medication or any previous head injury resulting in loss of consciousness for 5 or more minutes were used as exclusion criteria. While no participant met criteria for a neuropsychiatric disorder at enrollment, clinical assessments were still completed throughout the study to evaluate changes in mood state. In addition, self-reports of sleep habits, lifestyle, and exercise routines were also administered at baseline as well as at each study visit to assess changes in health habits during study participation. Following the completion of Visit 1 assessment, participants were given their 28-day supply of citicoline (250 mg or 500 mg) or placebo, which was randomly assigned. They were instructed to take one capsule a day every day for the next 28 days. Visit 2 occurred fourteen days after Visit 1. At Visit 2, the remaining study pills were counted and participant dosage calendars were checked to ensure compliance with the protocol. Additional neuropsychological measures and clinical assessments were administered during this visit. Participants returned for Visit 3 fourteen days later, on the 28th day of their study participation. The pill bottle and the dosage calendar were collected from each participant. Urine and blood were again obtained. Participants also participated in similar clinical and neuropsychological testing and clinical measures that were given during visit 1. The ARS is a questionnaire assessing the frequency of DSM-IV-TR symptoms of ADHD in children including inattention, impulsivity, and hyperactivity. The scale was administered at each of the three visits to assess presence or absence of ADHD symptoms."}, "[3]": {"test_system": "Healthy subjects, ages 13-18", "assay": "Pittsburgh Sleep Quality Index (PSQI)", "conditions": "for PSQI Score, Mean: V3-V1", "source_text": "Study participants were screened by telephone prior to study enrollment. Healthy subjects, ages 13-18, with no significant medical conditions and no history of co-morbid psychiatric disorder, current Axis I or II diagnosis, or previous participation in a pharmacotherapeutic trial, were selected. Use of any psychotropic medication or any previous head injury resulting in loss of consciousness for 5 or more minutes were used as exclusion criteria. While no participant met criteria for a neuropsychiatric disorder at enrollment, clinical assessments were still completed throughout the study to evaluate changes in mood state. In addition, self-reports of sleep habits, lifestyle, and exercise routines were also administered at baseline as well as at each study visit to assess changes in health habits during study participation. Following the completion of Visit 1 assessment, participants were given their 28-day supply of citicoline (250 mg or 500 mg) or placebo, which was randomly assigned. They were instructed to take one capsule a day every day for the next 28 days. Visit 2 occurred fourteen days after Visit 1. At Visit 2, the remaining study pills were counted and participant dosage calendars were checked to ensure compliance with the protocol. Additional neuropsychological measures and clinical assessments were administered during this visit. Participants returned for Visit 3 fourteen days later, on the 28th day of their study participation. The pill bottle and the dosage calendar were collected from each participant. Urine and blood were again obtained. Participants also participated in similar clinical and neuropsychological testing and clinical measures that were given during visit 1. The PSQI is a self-report sleep questionnaire designed to assess usual sleep habits during the past month. The PSQI was administered at each of the three study visits to assess alterations to sleep quality during the 28 days of study participation."}}, "note": "Values joined by “and” are separate entries in the source; they are usually repeats but may differ in a detail not shown here. Equal values may be shown once."}
{"smiles": "C[N+](C)(C)CCOP(=O)(O)OP(=O)([O-])OC[C@H]1O[C@@H](n2ccc(N)nc2=O)[C@H](O)[C@@H]1O", "note": "[citicoline, Cytidine 5′-diphosphocholine]", "values": [{"measurement": "BIS Attention, Mean", "setting": "[1]; 250 mg/day, V1 (baseline)", "value": 18.52}, {"measurement": "BIS Motor, Mean", "setting": "[1]; 250 mg/day, V1 (baseline)", "value": 22.22}, {"measurement": "BIS Non-planning, Mean", "setting": "[1]; 250 mg/day, V1 (baseline)", "value": 24.85}, {"measurement": "BIS Total, Mean", "setting": "[1]; 250 mg/day, V1 (baseline)", "value": 65.59}, {"measurement": "BIS Attention, Mean", "setting": "[1]; 250 mg/day, V3 (day 28)", "value": 18.59}, {"measurement": "BIS Motor, Mean", "setting": "[1]; 250 mg/day, V3 (day 28)", "value": 22.00}, {"measurement": "BIS Non-planning, Mean", "setting": "[1]; 250 mg/day, V3 (day 28)", "value": 24.44}, {"measurement": "BIS Total, Mean", "setting": "[1]; 250 mg/day, V3 (day 28)", "value": 65.04}, {"measurement": "BIS Attention, Mean", "setting": "[1]; 250 mg/day, V3-V1", "value": 0.07}, {"measurement": "BIS Motor, Mean", "setting": "[1]; 250 mg/day, V3-V1", "value": -0.22}, {"measurement": "BIS Non-planning, Mean", "setting": "[1]; 250 mg/day, V3-V1", "value": -0.41}, {"measurement": "BIS Attention, Mean", "setting": "[1]; 500 mg/day, V1 (baseline)", "value": 16.54}, {"measurement": "BIS Motor, Mean", "setting": "[1]; 500 mg/day, V1 (baseline)", "value": 20.21}, {"measurement": "BIS Non-planning, Mean", "setting": "[1]; 500 mg/day, V1 (baseline)", "value": 22.67}, {"measurement": "BIS Total, Mean", "setting": "[1]; 500 mg/day, V1 (baseline)", "value": 59.63}, {"measurement": "BIS Attention, Mean", "setting": "[1]; 500 mg/day, V3 (day 28)", "value": 16.50}, {"measurement": "BIS Motor, Mean", "setting": "[1]; 500 mg/day, V3 (day 28)", "value": "20.04 and 19.29"}, {"measurement": "BIS Non-planning, Mean", "setting": "[1]; 500 mg/day, V3 (day 28)", "value": "21.71 and 22.42"}, {"measurement": "BIS Total, Mean", "setting": "[1]; 500 mg/day, V3 (day 28)", "value": 58.21}, {"measurement": "BIS Attention, Mean", "setting": "[1]; 500 mg/day, V3-V1", "value": -0.04}, {"measurement": "BIS Motor, Mean", "setting": "[1]; 500 mg/day, V3-V1", "value": -1.00}, {"measurement": "BIS Non-planning, Mean", "setting": "[1]; 500 mg/day, V3-V1", "value": -0.38}, {"measurement": "BIS Total, Mean", "setting": "[1]; 500 mg/day, V3-V1", "value": -1.42}, {"measurement": "ARS Impulsivity, Mean", "setting": "[2]; 250 mg/day, V1 (baseline)", "value": 1.44}, {"measurement": "ARS Inattention, Mean", "setting": "[2]; 250 mg/day, V1 (baseline)", "value": 1.30}, {"measurement": "ARS Impulsivity, Mean", "setting": "[2]; 250 mg/day, V3 (day 28)", "value": 0.85}, {"measurement": "ARS Inattention, Mean", "setting": "[2]; 250 mg/day, V3 (day 28)", "value": 1.56}, {"measurement": "ARS Impulsivity, Mean", "setting": "[2]; 250 mg/day, V3-V1", "value": -0.59}, {"measurement": "ARS Inattention, Mean", "setting": "[2]; 250 mg/day, V3-V1", "value": 0.26}, {"measurement": "ARS Impulsivity, Mean", "setting": "[2]; 500 mg/day, V1 (baseline)", "value": 0.88}, {"measurement": "ARS Inattention, Mean", "setting": "[2]; 500 mg/day, V1 (baseline)", "value": 0.50}, {"measurement": "ARS Impulsivity, Mean", "setting": "[2]; 500 mg/day, V3 (day 28)", "value": 0.38}, {"measurement": "ARS Inattention, Mean", "setting": "[2]; 500 mg/day, V3 (day 28)", "value": 0.38}, {"measurement": "ARS Inattention, Mean", "setting": "[2]; 500 mg/day, V3-V1", "value": -0.13}, {"measurement": "PSQI, Mean", "setting": "[3]; 250 mg/day, V1 (baseline)", "value": 3.41}, {"measurement": "PSQI, Mean", "setting": "[3]; 250 mg/day, V3 (day 28)", "value": 2.59}, {"measurement": "PSQI Score, Mean", "setting": "[3]; 250 mg/day", "value": -0.81}, {"measurement": "PSQI, Mean", "setting": "[3]; 500 mg/day, V1 (baseline)", "value": 3.38}, {"measurement": "PSQI, Mean", "setting": "[3]; 500 mg/day, V3 (day 28)", "value": 2.46}, {"measurement": "PSQI Score, Mean", "setting": "[3]; 500 mg/day", "value": -0.92}]}
